{
  "source": "patent US7951359B2",
  "about": "“Compositions and methods for therapy or prevention of chemotherapy-induced neuropathy” (Merck Serono SA, priority 2004, dated 2011)",
  "key": {"[1]": {"test_system": "lung (SK-MES1) tumor cell line", "assay": "Cell survival by acid phosphatase activity assay, SK-MES1", "type": "cell-based, human", "protocol": "The human lung (SK-MES1) and breast (MCF7) tumor cell lines were obtained from ATCC. The cell lines were maintained in Dulbecco's MEM medium (Gibco; Invitrogen, Cergy-Pontoise, France, ref. 41965039) supplemented with 1% antibiotic/antimicotic mixture solution (Gibco, ref. 15240062), and 10% heat-inactivated foetal bovine serum (Gibco, ref. F7524, batch 92K3387). The cells were amplified in Nunc tissue culture flasks (80 cm2) in a humidified incubator at 37° C. with 5% CO2 in 95% air. Cultures were sub-cultured twice a week.\nThe enzymatic activity has been proven to be proportional to the number of living cells (Ueda et al.; 1994).\nThree days after the last replication, tumor cells were seeded in 96 well-plates (TPP, VWR International, Fontenay-sous-bois, France) at a density of 1,500 cells (MCF7 line) or 3,000 cells (SK-MES1 line) per well, in a total volume of 100 μl/well and incubated overnight in a humidified incubator at 37° C. with 5% CO2 in 95% air. […] IL-6 (in buffer solution at 1.8 mg/ml, PH: 7) was immediately added at concentrations of 0, 3, 12, 50 or 200 ng/ml.\nFour days after the initiation of the intoxication, acid phosphatase activity (Example 21) in each cell culture was assessed.\nAfter removal of the culture medium, cells were rinsed with phosphate-buffered saline (PBS, Gibco, ref. 14190-094) and further incubated for 90 min at 37° C. in 100 μl of buffer containing 0.1 mol/l sodium acetate (pH 5.5), 0.1% Triton X100 (Sigma, ref. T9284) and 10 mmol/l p-nitrophenyl phosphate (Sigma, ref. N9389). Reaction was stopped by addition of 10 μl of 1 mol/l sodium hydroxide aqueous solution (Laboratoire de Produit Chimiques de la Robertsau, Strasbourg, France; ref. 28.252.293). Absorbance of the colored solution was measured at 405 nm in a microplate reader (Labsystems Multiskan Bichromatic, EST-LAB, Strasbourg, France).\nThe results were expressed as percentage of optical density of the control cell cultures. The heights of the columns represent mean±SEM of percentages of 5-6 wells from two independent cultures."}, "[2]": {"test_system": "cisplatin induced neuropathy", "assay": "Morphometric analysis, therapeutic treatment of established cisplatin neuropathy", "type": "in vivo, rat", "conditions": "for proportion of degenerated fibers versus control: p≦0.05", "text": "The number of degenerated and non-degenerated fibers on the entire surface of each nerve section was counted by an operator in a blinded fashion. All the results (except the data expressed as ratio value) were reported as percentage of changes in reference to the control value."}, "[3]": {"assay": "Body weight in cisplatin induced neuropathy rat model", "type": "in vivo", "protocol": "(c) 4 treated-cisplatin-intoxicated groups (n=10) consisting of animals receiving daily SC injections of IL-6 compound at 4 different doses: 0.3, 1, 3, 10 μg/kg; and (d) a 4-methylcatechol (4-MC)-treated, cisplatin-intoxicated group (n=10) receiving a daily IP injection of 4-MC at 10 μg/kg. […] The drug was diluted in 0.9% sterile aqueous solution of sodium chloride."}, "[4]": {"test_system": "human WiDr colon carcinoma", "assay": "Human WiDr colon carcinoma tumor growth in nude mice", "type": "in vivo, mouse", "protocol": "The following experiment was carried out to check potential drug interaction between IL-6 and the chemotherapeutic agent in vivo.\nBalb/c nude mice are used since have proven to be susceptible host systems for the growth of human WiDr colon carcinoma tumor cells. WiDr cells were provided by the bank of the National Cancer Research Institute Genova-Italy. Cell species: human, tissue: colon, tumor: colon adenocarcinoma, accession number: ICLC HTL00003.\nTumor size was recorded twice a week for 4 weeks starting 4 days after cell inoculation.\nEach Balb/c nude mice (about 20-25 g body weight) was inoculated subcutaneously (s.c.) with 10^7+5% WiDr cells/mouse (0.2 mL/mouse of cell suspension) on day 1.\nA group administered with 0.02% mouse albumin (Sigma) in 40 mM phosphate buffer at pH=7.0, s.c., a group administered with 3.5 mg/kg Cis-platinum, i.p. (in 0.9% NaCl sterile solution for injection), three groups of rats each treated with IL-6 (in 0.02% mouse albumin in 40 mM phosphate buffer at pH=7.0), s.c. at 3, 10 or 30 μg/kg and three groups of rats treated with IL-6 either at 3, 10 or 30 μg/kg IL-6, s.c. in combination with cis-platinum 3.5 mg/kg, i.p.\nIL-6 at […] was given s.c. daily (10 mL/kg) from day 4 up to day 18. […] Tumor size was recorded twice a week for 4 weeks starting 4 days after cell inoculation. […]"}, "[5]": {"test_system": "cisplatin induced neuropathy", "assay": "Morphometric analysis of sciatic nerve in cisplatin-treated rats, co-administration", "type": "in vivo, rat", "protocol": "The total number of fibers per nerve section was obtained from 3 randomized slices of each sample. The counting was performed on 2 selected fields per slice."}, "[6]": {"conditions": "cisplatin alone, 3 weeks after cessation of cisplatin"}},
  "data": [
    {"compound": "IL-6: Recombinant human IL-6 produced in genetically engineered Chinese Hamster Ovary (CHO) cells", "values": [
      {"measurement": "survival of vincristine or cisplatine treated cells in the presence of IL-6", "setting": "[1]; IL-6 3, 12, 50 or 200 ng/ml, p>0.05", "value": "did not change significantly"},
      {"measurement": "survival of carboplatin-intoxicated cells in the presence of IL-6", "setting": "[1]; IL-6 3, 12, 50 or 200 ng/ml, significant", "value": "decrease of survival"},
      {"measurement": "effect of taxol on cell survival with IL-6", "setting": "[1]; IL-6 3-200 ng/ml, p>0.05", "value": "did not change the effect of taxol"},
      {"measurement": "survival of cells intoxicated with carboplatin and taxol in the presence of IL-6", "setting": "[1]; p>0.05", "value": "remained unchanged"},
      {"measurement": "cisplatin-induced myelin sheath thinning", "setting": "[2]; IL-6 10 μg/kg", "value": "appeared to reverse cisplatin-induced myelin sheath thinning"},
      {"measurement": "percentage of degenerated fibers, significance", "setting": "[2]; IL-6 10 μg/kg", "value": "significant effect"},
      {"measurement": "large/small fibers ratio", "setting": "[2]; IL-6 treatment", "value": "slight increase"},
      {"measurement": "percentage of degenerated fibers", "setting": "[2]; IL-6 treatment (3 and 10 μg/kg)", "value": "significantly reduced the percentage of degenerated fibers"},
      {"measurement": "restoring myelin and fiber degeneration compared with 4-MC", "setting": "[2]; IL-6 vs 4-MC", "value": "more efficient than 4-MC"},
      {"measurement": "animal growth under cisplatin with IL-6", "setting": "[3]; IL-6 0.3, 1, 3, 10 μg/kg SC daily with cisplatin", "value": "marked inhibition of animal growth, regardless of IL-6 treatments undertaken"},
      {"measurement": "WiDr tumor growth", "setting": "[4]; IL-6 alone 3, 10 and 30 μg/kg s.c. daily day 4 to 18", "value": "did not significantly affect the growth of the tumor"},
      {"measurement": "loss of myelin wall by cisplatin", "setting": "[5]; IL-6 1, 3, 10 μg/kg", "value": "significantly protected fibers against the loss of myelin wall"},
      {"measurement": "percentage of degenerated fibers by cisplatin", "setting": "[5]; IL-6 1, 3, 10 μg/kg", "value": "reduce the percentage of degenerated fibers"},
      {"measurement": "cisplatin-induced axon diameter decrease", "setting": "[5]; IL-6, statistically significant at 1-10 μg/kg", "value": "prevents/reduces cisplatin-induced axon diameter decrease"},
      {"measurement": "fiber diameter decrease by cisplatin", "setting": "[5]; IL-6 all doses tested, statistically significant at 1-10 μg/kg", "value": "prevents/reduce the diameter decrease"},
      {"measurement": "myelinated fibers in cisplatin treated rats", "setting": "[5]; IL-6 co-administration", "value": "increased myelinated fibers"}
    ]},
    {"compound": "N.N.[Cl][Pt][Cl]", "note": "[cisplatin, Cis-dichlorodiamine platinum]", "values": [
      {"measurement": "decrease in cell survival versus control", "setting": "[1]; cisplatin (2.5 μM), carboplatin (25 μM), 4 days", "value": "about 50%"},
      {"measurement": "proportion of non-degenerated myelinated fibers versus control", "setting": "[2]; [6]", "value": "lower"},
      {"measurement": "proportion of degenerated fibers versus control", "setting": "[2]; [6]", "value": "significantly higher"},
      {"measurement": "proportion of non-degenerated myelinated fibers versus control", "setting": "[2]; cisplatin alone, day 23", "value": "lower"},
      {"measurement": "proportion of degenerated fibers versus control", "setting": "[2]; cisplatin alone, day 23", "value": "significant greater proportion of degenerated fibers"},
      {"measurement": "myelin area", "setting": "[2]; cisplatin alone, day 44, p>0.05", "value": "slight but not significant reduction"},
      {"measurement": "overall size of myelin versus control", "setting": "[2]; cisplatin alone, up to day 23, not significant (p>0.05)", "value": "slightly reduced"},
      {"measurement": "body weight lost at completion of cisplatin administration", "setting": "[3]; cisplatin 2 mg/kg IP twice a week, 4 weeks, vehicle-treated", "value": "about 10%"},
      {"measurement": "WiDr tumor growth", "setting": "[4]; cisplatin 3.5 mg/kg i.p. days 4, 8, 12, 18, significant on days 18, 22, 25", "value": "reduce tumor growth"},
      {"measurement": "fiber diameter", "setting": "[5]; cisplatin alone", "value": "significantly decreases fibers diameter"},
      {"measurement": "percent of myelinated fibers versus control", "setting": "[5]; cisplatin alone", "value": "significant reduction in the percent of myelinated fibers"},
      {"measurement": "percentage of degenerated fibers versus control", "setting": "[5]; cisplatin alone", "value": "two-folds higher"}
    ]}
  ]
}
